# Laboratory results: PMC11470957, “Principles of paralog-specific targeted protein degradation engaging the C-degron E3 KLHDC2” (Nature Communications, 2024)
# “And” between values parts separate entries of the source, which are not always exact repeats. Equal values may be shown once.
# Legend:
# [1] = target: BRD3 (Homo sapiens, UniProt Q15059); assay: Western blot of BRD3 levels after cellular dosing
# [2] = target: BRD2 (Homo sapiens, UniProt P25440); assay: Western blot of BRD2 levels after cellular dosing
# [3] = test system: BD2 domain from BRD2, BRD3, or BRD4 / neddylated CRL2^KLHDC2; assay: Pulse-chase PROTAC-dependent ubiquitylation of BRD BD2 domains by neddylated CRL2^KLHDC2; settings: neddylated CRL2^KLHDC2 not subject to autoinhibition; Fig 3e
# [4] = Fig S6b, MDA-MB468 Cells, 10 uM
# Chain of BRD3 (Q15059 whole entry): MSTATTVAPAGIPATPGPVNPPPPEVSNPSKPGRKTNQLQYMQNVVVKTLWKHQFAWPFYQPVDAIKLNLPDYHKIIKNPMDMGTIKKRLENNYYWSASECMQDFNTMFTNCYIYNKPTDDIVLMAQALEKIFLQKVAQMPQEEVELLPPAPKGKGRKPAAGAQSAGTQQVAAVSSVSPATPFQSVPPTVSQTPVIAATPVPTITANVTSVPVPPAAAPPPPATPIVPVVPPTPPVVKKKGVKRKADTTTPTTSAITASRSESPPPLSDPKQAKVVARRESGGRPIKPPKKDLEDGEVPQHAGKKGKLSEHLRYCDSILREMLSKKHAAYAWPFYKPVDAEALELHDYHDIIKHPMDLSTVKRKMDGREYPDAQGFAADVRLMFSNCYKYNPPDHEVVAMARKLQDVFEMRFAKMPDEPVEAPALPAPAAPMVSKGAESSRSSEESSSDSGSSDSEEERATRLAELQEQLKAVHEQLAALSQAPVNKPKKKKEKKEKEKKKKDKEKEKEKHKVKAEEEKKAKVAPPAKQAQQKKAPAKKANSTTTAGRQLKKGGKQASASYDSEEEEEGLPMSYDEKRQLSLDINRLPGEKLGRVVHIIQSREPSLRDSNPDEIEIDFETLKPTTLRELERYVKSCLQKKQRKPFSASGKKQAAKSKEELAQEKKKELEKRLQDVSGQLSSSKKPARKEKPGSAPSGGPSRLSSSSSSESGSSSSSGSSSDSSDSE
# Chain of BRD2 (P25440 whole entry, the tested form may be a part): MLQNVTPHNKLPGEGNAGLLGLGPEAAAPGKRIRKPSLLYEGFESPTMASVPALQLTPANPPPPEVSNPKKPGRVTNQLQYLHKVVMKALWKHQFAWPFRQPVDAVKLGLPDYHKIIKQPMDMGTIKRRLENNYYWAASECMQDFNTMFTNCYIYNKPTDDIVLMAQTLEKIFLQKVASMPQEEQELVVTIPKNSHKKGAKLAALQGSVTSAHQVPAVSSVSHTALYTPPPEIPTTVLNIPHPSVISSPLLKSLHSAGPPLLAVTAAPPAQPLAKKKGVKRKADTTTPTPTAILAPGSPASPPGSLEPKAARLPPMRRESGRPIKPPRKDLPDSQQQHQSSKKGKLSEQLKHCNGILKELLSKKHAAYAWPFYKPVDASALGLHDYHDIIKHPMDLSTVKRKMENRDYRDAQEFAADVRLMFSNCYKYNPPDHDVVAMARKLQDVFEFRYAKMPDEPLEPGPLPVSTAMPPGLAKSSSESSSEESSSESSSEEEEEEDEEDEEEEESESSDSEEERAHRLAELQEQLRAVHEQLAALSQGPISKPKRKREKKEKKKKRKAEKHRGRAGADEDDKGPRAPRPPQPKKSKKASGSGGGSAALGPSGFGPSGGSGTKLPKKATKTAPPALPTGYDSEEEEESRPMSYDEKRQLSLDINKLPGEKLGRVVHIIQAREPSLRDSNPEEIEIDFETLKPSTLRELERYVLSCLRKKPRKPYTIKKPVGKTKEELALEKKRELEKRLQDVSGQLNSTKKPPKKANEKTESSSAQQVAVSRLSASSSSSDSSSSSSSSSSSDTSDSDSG
smiles,measurement,setting,value
Cc1sc2c(c1C)C(c1ccc(Cl)cc1)=N[C@@H](CC(=O)N1CCN(CCOc3cccc4ccc(-c5nc(CC(=O)NCC(=O)O)cs5)cc34)CC1)c1nnc(C)n1-2 [SJ46421],"BRD3 level, Western blot quantification (DMSO = 100)","[1]; Fig 6b, KO/Rescue, 5 uM",107.446 and 99.4453
same,"BRD3 level, Western blot quantification (DMSO = 100)","[1]; Fig 6b, U2OS, 5 uM",111.974 and 117.271
same,"BRD3 level, Western blot quantification (DMSO = 100)","[1]; Fig S6a, 293T cells, 2.5 uM",78.3969 and 86.4266
same,"BRD3 level, Western blot quantification (DMSO = 100)","[1]; Fig S6a, 293T cells, 5 uM",73.4789 and 84.2355
same,"BRD3 level, Western blot quantification (DMSO = 100)",[1]; [4],61.0904 and 82.4759
same,BRD degradation activity in U2OS cells,"[1]; wild-type U2OS, 24 h dose, Fig 6b",inactive
same,"BRD2 level, Western blot quantification (DMSO = 100)","[2]; Fig 6b, KO/Rescue, 5 uM",112.267 and 101.949
same,"BRD2 level, Western blot quantification (DMSO = 100)","[2]; Fig 6b, U2OS, 5 uM",136.72 and 118.225
same,"BRD2 level, Western blot quantification (DMSO = 100)","[2]; Fig S6a, 293T cells, 2.5 uM",72.5135 and 88.7213
same,"BRD2 level, Western blot quantification (DMSO = 100)","[2]; Fig S6a, 293T cells, 5 uM",75.5009 and 85.1412
same,"BRD2 level, Western blot quantification (DMSO = 100)",[2]; [4],62.2331 and 83.5917
same,"polyubiquitylation of the BD2 domain from BRD2, BRD3, or BRD4",[3],able to promote polyubiquitylation
